Laboratory results published in US7205322B2, “Thiazolidine compounds as calcium sensing receptor modulators” (Bristol-Myers Squibb Company, priority 2003, dated 2007).
Where a name gives a salt, the structure may show the parent alone.

Key:
[1] = postmenopausal women; placebo-controlled trial (Neer et al. 2001); cited from earlier work
[2] = intravenous bolus injection; cited from earlier work
[3] = OVX rats; oral administration; in the presence of an anti-resorptive agent (Gowen et al. 2000); cited from earlier work

Q: For `COc1ccc(CC(C)(C)NC[C@H](O)[C@H]2CSCN2Cc2cccc(C#N)c2)cc1` (stereo in doubt) (as salt: hydrochloride) [Example 3, 3-(4-{1-Hydroxy-2-[2-(4-methoxy-phenyl)-1,1-dimethyl-ethylamino]-ethyl}-thiazolidin-3-ylmethyl)-benzonitrile], which melting point is on record?
A: The melting point was 158 to 163 °C.

Q: What does the source list for “PTH peptide fragment (1–34): PTH peptide fragment (1–34), parathyroid hormone fragment; stimulator of bone formation (SVSEIQLMHNLGKHLNSMERVEWLRKKLQDVHNF; Parathyroid hormone; UniProt P01270 32-65, looked up, fragment)”?
A: reduction of the risk of non-traumatic, non-spine fractures [1]: 54%; reduction of the risk of spine fractures [1]: 65%

Q: For `CC(C)(Cc1ccc2ccccc2c1)NC[C@H](O)[C@H]1CSCN1Cc1ccc(SCc2ccco2)c([N+](=O)[O-])c1` (stereo in doubt) [Example 4, 2-(1,1-Dimethyl-2-naphthalen-2-yl-ethylamino)-1-{3-[4-(furan-2-ylmethylsulfanyl)-3-nitro-benzyl]-thiazolidin-4-yl}-ethanol], which melting point is on record?
A: The melting point was 80 to 85 °C.

Q: Which “effect on serum PTH” value [2] does the source give for `CC(C)(Cc1ccc2ccccc2c1)NC[C@@H](O)COc1cccc(Cl)c1C#N` [NPS-2143] here?
A: The value was “transient increase in serum PTH”.

Q: What about the “effect on bone mass” value [3] of the same molecule?
A: Its value is “increase in bone mass”.
